The text below walks through data of patent publication US8277839B2, “Oral pharmaceutical composition of anilinopyrimidine, preparation and use thereof” (Ares Trading S.A., priority 2006, dated 2012).

≈ marks a conversion by molar mass, not a printed value.

Series [1] is described as follows: visual solubility test (apparent solubility in different excipients). The series is classed as physicochemical. Particulars: for solubility: thermodynamic from solid. How it is done: Subsequently in order to analyze the solubility of the anilinopyrimidine of Formula (I) and to identify the preferred excipients, ten solutions of batch FD050007 and ten solution of the starting batch 61569-02 were prepared and analized with a visual solubility test.
A data summary for the anilinopyrimidine derivative of Formula (I) apparent solubility in different excipients is given in Table 2.

The subject of series [2] is primary fresh cells from Acute Myeloid Leukemia (AML) patients. Particulars: most primary fresh cells from AML patients; cited from earlier work.
[3] abbreviates: in Cremophor EL (castor oil-ethylene oxide).
Setting [4] is: in Labrafil M1944CS (oleoyl macrogol glyceride).

What is called solubility is the dissolved amount per volume that the medium holds.

For `CC(=O)N1CCN(C(=O)c2ccc(Nc3nccc(-c4ccc(Cl)cc4)n3)cc2)CC1` [FD050007, 1-(4{4-[4-(4-Chloro-phenyl)-pyrimidin-2-ylamino]-benzoyl}-piperazin-1-yl)-ethanone], the solubility in series [1] (HP-β-CD, aqueous with cosolvent or surfactant or cyclodextrin, in HP-β-CD) worked out at 5.75 mg/mL (≈ 13.2 mM); in series [1] (Labrasol (caprylocapryoyl macrogol glyceride), oil or lipid, in Labrasol (caprylocapryoyl macrogol glyceride)), 26.3 mg/mL (≈ 60.3 mM); in series [1] (Transcutol HP, organic solvent or mixture, in Transcutol HP), 26.2 mg/mL (≈ 60.1 mM). In addition, the apparent solubility is 19.6 mg/mL in series [1] (in Capmul GMO-50); 54 mg/mL in series [1] (in Capmul MCM C10 (glyceril monocaprate)); 115 mg/mL in series [1] (in Capmul MCM-Lutrol E600 1:1); “Suspension” in series [1] (setting [3]); “Suspension” in series [1] (setting [4]); 115 mg/mL in series [1] (in Lutrol E600 (PEG 600)). Moreover, in series [1] (in Vitamin E TPGS), the apparent solubility result is listed as “Solid”.

Take `CC(=O)N1CCN(C(=O)c2ccc(Nc3nccc(-c4ccc(Cl)cc4)n3)cc2)CC1` [Formula 61569-02, 1-(4{4-[4-(4-Chloro-phenyl)-pyrimidin-2-ylamino]-benzoyl}-piperazin-1-yl)-ethanone]: the solubility turned out to be 20.2 mg/mL in series [1] (Capmul GMO-50, oil or lipid, in Capmul GMO-50); 59.5 mg/mL in series [1] (Capmul MCM C10 (glyceril monocaprate), oil or lipid, in Capmul MCM C10 (glyceril monocaprate)); 115 mg/mL in series [1] (Capmul MCM-Lutrol E600 1:1, organic solvent or mixture, in Capmul MCM-Lutrol E600 1:1); 104 mg/mL in series [1] (Lutrol E600 (PEG 600), organic solvent or mixture, in Lutrol E600 (PEG 600)). In addition, the apparent solubility result was “Suspension” in series [1] (setting [3]); “Suspension” in series [1] (setting [4]); “Suspension” in series [1] (in Labrasol (caprylocapryoyl macrogol glyceride)); “Suspension” in series [1] (in Transcutol HP); “Solid” in series [1] (in Vitamin E TPGS).

With `CC(=O)N1CCN(C(=O)c2ccc(Nc3nccc(-c4ccc(Cl)cc4)n3)cc2)CC1` [Formula (I), 1-(4{4-[4-(4-Chloro-phenyl)-pyrimidin-2-ylamino]-benzoyl}-piperazin-1-yl)-ethanone], the cell death result in series [2] is listed as “induces cell death”. For the same compound, the “solubility, milled versus starting batch” value in series [1] (in particular in Capmul MCM C10, Lutrol E600 and Capmul MCM-Lutrol E600 1:1) was “better solubility when milled”.
